# In patent US20100204265A1 (priority 2009, published 2010):
# System: ET (Huh-lucubineo-ET) cell line harboring I389luc-ubi-neo/NS3-3′/ET HCV replicon
# Assay: Replicon assay (HCV replicon, luciferase readout)
# Type: cell-based
# Settings: Hepatitis C virus
# In short: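 Compounds at 10-point 2-fold dilutions (overall 0.1 nM to […], 0.5% DMSO) were applied to ET cells carrying a luciferase-neo HCV replicon, seeded a day earlier. After 48-72 hours, luciferase-based % inhibition was fitted with a Hill equation for EC50, and parallel WST-1 readings gave TC50.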
row,Compound,EC50
1,"N#CC1(c2ncccc2F)CCN(C(=O)c2nc3c(C(F)(F)F)cc(-c4ccoc4)cn3c2Cl)CC1 [Compound 220, 1′-(3-Chloro-6-furan-3-yl-8-trifluoromethyl-imidazo[1,2-a]pyridine-2-carbonyl)-3-fluoro-2′,3′,5′,6′-tetrahydro-1′H-[2,4′]bipyridinyl-4′-carbonitrile]",0.777 µM
2,"N#CC1(c2cccs2)CCN(C(=O)c2nc3c(C(F)(F)F)cc(-c4ccoc4)cn3c2Cl)CC1 [Compound 221, 1-(3-Chloro-6-furan-3-yl-8-trifluoromethyl-imidazo[1,2-a]pyridine-2-carbonyl)-4-thiophen-2-yl-piperidine-4-carbonitrile]",0.0455 µM
3,"O=C(c1nc2c(C(F)(F)F)cc(-c3ccoc3)cn2c1Cl)N1CCC(O)(c2ncccc2F)CC1 [Compound 222, (3-Chloro-6-furan-3-yl-8-trifluoromethyl-imidazo[1,2-a]pyridin-2-yl)-(3-fluoro-4′-hydroxy-3′,4′,5′,6′-tetrahydro-2′H-[2,4′]bipyridinyl-1′-yl)-methanone]",0.624 µM
4,"O=C(c1nc2c(C(F)(F)F)cc(-c3ccoc3)cn2c1Cl)N1CCC(F)(c2ncccc2F)CC1 [Compound 223, (3-Chloro-6-furan-3-yl-8-trifluoromethyl-imidazo[1,2-a]pyridin-2-yl)-(3,4′-difluoro-3′,4′,5′,6′-tetrahydro-2′H-[2,4′]bipyridinyl-1′-yl)-methanone]",0.657 µM
5,"O=C(c1nc2c(C(F)(F)F)cc(-c3ccoc3)cn2c1Cl)N1CCC(O)(c2nccs2)CC1 [Compound 224, (3-Chloro-6-furan-3-yl-8-trifluoromethyl-imidazo[1,2-a]pyridin-2-yl)-(4-hydroxy-4-thiazol-2-yl-piperidin-1-yl)-methanone]",3.5 µM
6,"CC(C)CCC1CCN(C(=O)c2nc3c(C(F)(F)F)cc(-c4ccoc4)cn3c2Cl)CC1 [Compound 225, (3-Chloro-6-furan-3-yl-8-trifluoromethyl-imidazo[1,2-a]pyridin-2-yl)-[4-(3-methyl-butyl)-piperidin-1-yl]-methanone]",2.29 µM
7,"O=C(NCc1cn2cc(-c3ccoc3)cc(C(F)(F)F)c2n1)C1CC1 [Compound 226, Cyclopropanecarboxylic acid (6-furan-3-yl-8-trifluoromethyl-imidazo[1,2-a]pyridin-2-ylmethyl)-amide]",> 50 µM
8,"O=S(=O)(NCc1cn2cc(-c3ccoc3)cc(C(F)(F)F)c2n1)C1CC1 [Compound 227, Cyclopropanesulfonic acid (6-furan-3-yl-8-trifluoromethyl-imidazo[1,2-a]pyridin-2-ylmethyl)-amide]",> 50 µM
9,"FC(F)(F)c1cc(-c2ccoc2)cn2cc(Cn3cnc(-c4ccccc4)c3)nc12 [Compound 228, 6-Furan-3-yl-2-(4-phenyl-imidazol-1-ylmethyl)-8-trifluoromethyl-imidazo[1,2-a]pyridine]",> 50 µM
10,"FC(F)(F)c1cc(-c2ccoc2)cn2cc(Cc3nc(-c4ccccc4)no3)nc12 [Compound 229, 6-Furan-3-yl-2-(3-phenyl-[1,2,4,]oxadiazol-5-ylmethyl)-8-trifluoromethyl-imidazo[1,2-a]pyridine]",> 50 µM
11,"FC(F)(F)c1cc(-c2ccoc2)cn2cc(Cc3nc(Cc4ccccc4)no3)nc12 [Compound 230, 2-(3-Benzyl-[1,2,4]oxadiazol-5-ylmethyl)-6-furan-3-yl-8-trifluoromethyl-imidazo[1,2-a]pyridine]",> 50 µM
12,"FC(F)(F)c1cc(-c2ccoc2)cn2cc(Cc3nc(COc4ccccc4)no3)nc12 [Compound 231, 6-Furan-3-yl-2-(3-phenoxymethyl-[1,2,4]oxadiazol-5-ylmethyl)-8-trifluoromethyl-imidazo[1,2-a]pyridine]",> 50 µM
13,"CC(C)CS(=O)(=O)NCc1cn2cc(-c3ccoc3)cc(C(F)(F)F)c2n1 [Compound 232, 2-Methyl-propane-1-sulfonic acid (6-furan-3-yl-8-trifluoromethyl-imidazo[1,2-a]pyridin-2-ylmethyl)-amide]",> 50 µM
14,"CCOCCOC1CCN(C(=O)c2nc3c(C(F)(F)F)cc(-c4cn[nH]c4)cn3c2Cl)C1 (stereo not shown) [Compound 233, [3-Chloro-6-(1H-pyrazol-4-yl)-8-trifluoromethyl-imidazo[1,2-a]pyridin-2-yl]-[3-(2-ethoxy-ethoxy)-pyrrohdin-1-yl]-methanone]",> 50 µM
15,"O=C1c2ccccc2C(=O)N1Cc1cn2cc(-c3ccoc3)cc(C(F)(F)F)c2n1 [Compound 234, 2-(6-Furan-3-yl-8-trifluoromethyl-imidazo[1,2-a]pyridin-2-ylmethyl)-isoindole-1,3-dione]",> 50 µM
16,"Clc1ccc(Cn2c(CN3CCCC3)nc3ccccc32)cc1 [Compound 235, 1-(4-Chloro-benzyl)-2-pyrrolidin-1-ylmethyl-1H-benzoimidazole]",40.2 µM
17,"N#CCc1cn2cc(-c3ccoc3)cc(C(F)(F)F)c2n1 [Compound 236, (6-Furan-3-yl-8-trifluoromethyl-imidazo[1,2-a]pyridin-2-yl)-acetonitrile]",> 50 µM
18,"NC(=O)C1CCCN1C(=O)c1nc2c(C(F)(F)F)cc(-c3ccoc3)cn2c1Cl (stereo not shown) [Compound 237, 1-(3-Chloro-6-furan-3-yl-8-trifluoromethyl-imidazo[1,2-a]pyridine-2-carbonyl)-pyrrolidine-2-carboxylic acid amide]",> 50 µM
19,"CN(C)CC(=O)NCc1cn2cc(-c3ccoc3)cc(C(F)(F)F)c2n1 [Compound 239, 2-Dimethylamino-N-(6-furan-3-yl-8-trifluoromethyl-imidazo[1,2-a]pyridin-2-ylmethyl)-acetamide]",> 50 µM
20,"CC(=O)NCC(=O)NCc1cn2cc(-c3ccoc3)cc(C(F)(F)F)c2n1 [Compound 240, 2-Acetylamino-N-(6-furan-3-yl-8-trifluoromethyl-imidazo[1,2-a]pyridin-2-ylmethyl)-acetamide]",> 50 µM
21,"CC(C)CC(N)C(=O)NCc1cn2cc(-c3ccoc3)cc(C(F)(F)F)c2n1 (stereo not shown) [Compound 241, 2-Amino-4-methyl-pentanoic acid (6-furan-3-yl-8-trifluoromethyl-imidazo[1,2-a]pyridin-2-ylmethyl)-amide]",> 50 µM
22,"CC(C)(C)OC(=O)NCCc1cn2cc(-c3ccoc3)cc(C(F)(F)F)c2n1 [Compound 242, [2-(6-Furan-3-yl-8-trifluoromethyl-imidazo[1,2-a]pyridin-2-yl)-ethyl]-carbamic acid tert-butyl ester]",> 50 µM
23,"CC(=O)NC(CC(C)C)C(=O)NCc1cn2cc(-c3ccoc3)cc(C(F)(F)F)c2n1 (stereo not shown) [Compound 243, 2-Acetylamino-4-methyl-pentanoic acid (6-furan-3-yl-8-trifluoromethyl-imidazo[1,2-a]pyridin-2-ylmethyl)-amide]",> 50 µM
24,"CC(=O)NC(C)C(=O)NCc1cn2cc(-c3ccoc3)cc(C(F)(F)F)c2n1 (stereo not shown) [Compound 244, 2-Acetylamino-N-(6-furan-3-yl-8-trifluoromethyl-imidazo[1,2-a]pyridin-2-ylmethyl)-propionamide]",> 50 µM
25,"CC(=O)NC(Cc1c[nH]c2ccccc12)C(=O)NCc1cn2cc(-c3ccoc3)cc(C(F)(F)F)c2n1 (stereo not shown) [Compound 245, 2-Acetylamino-N-(6-furan-3-yl-8-trifluoromethyl-imidazo[1,2-a]pyridin-2-ylmethyl)-3-(1H-indol-3-yl)-propionamide]",> 50 µM
